This note sets out measurements from PubChem BioAssay (NCI).

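Briefly, cells in 96-well plates were exposed to five compound concentrations for 48 h, and endpoints were estimated by linear interpolation. TGI marks complete inhibition of growth.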

The first test concerns 786-0 renal. The experiment in a line: NCI tumour cell line growth inhibition, 48 h.
`S=C(N/N=C/c1ccccn1)N1CCCCC1`: the TGI amounted to 7.08 µM.

Take `CC(=O)OCC1OC(N2C(c3ccccc3)=CC(c3cccs3)C(C#N)=C2S)C(OC(C)=O)C(OC(C)=O)C1OC(C)=O` (stereo not given): the TGI was > 100 µM.

In the case of `Nn1c(C23CC4CC(CC(C4)C2)C3)n[nH]c1=S`, the TGI was > 100 µM.

For the molecule `Cc1cn(C2CC(OC(=O)c3ccc(Cl)cc3)C(COC(=O)c3ccc(Cl)cc3)O2)c(=O)[nH]c1=O` (stereo not given), the TGI is > 100 µM.

The next test has as its system A498 renal. The experiment in a line: NCI tumour cell line growth inhibition, 48 h.
For the molecule `CC(=O)OCC1OC(N2C(c3ccccc3)=CC(c3cccs3)C(C#N)=C2S)C(OC(C)=O)C(OC(C)=O)C1OC(C)=O` (stereo not given), the TGI worked out at 42.9 µM.

Consider `Nn1c(C23CC4CC(CC(C4)C2)C3)n[nH]c1=S`, for which the TGI was > 100 µM.

The subject of a further test is A549 NSCLC. The experiment in a line: NCI tumour cell line growth inhibition, 48 h.
For `S=C(N/N=C/c1ccccn1)N1CCCCC1`, the TGI was > 100 µM.

Consider `CC(=O)OCC1OC(N2C(c3ccccc3)=CC(c3cccs3)C(C#N)=C2S)C(OC(C)=O)C(OC(C)=O)C1OC(C)=O` (stereo not given), for which the TGI was > 100 µM.

In the case of `Nn1c(C23CC4CC(CC(C4)C2)C3)n[nH]c1=S`, the TGI is > 100 µM.

With `Cc1cn(C2CC(OC(=O)c3ccc(Cl)cc3)C(COC(=O)c3ccc(Cl)cc3)O2)c(=O)[nH]c1=O` (stereo not given), the TGI was > 100 µM.

A further test deals with ACHN renal. The experiment in a line: NCI tumour cell line growth inhibition, 48 h.
Molecule `S=C(N/N=C/c1ccccn1)N1CCCCC1` had a TGI of 3.44 µM.

Turning to `CC(=O)OCC1OC(N2C(c3ccccc3)=CC(c3cccs3)C(C#N)=C2S)C(OC(C)=O)C(OC(C)=O)C1OC(C)=O` (stereo not given), the TGI is > 100 µM.

For the molecule `Nn1c(C23CC4CC(CC(C4)C2)C3)n[nH]c1=S`, the TGI is > 100 µM.

Regarding `Cc1cn(C2CC(OC(=O)c3ccc(Cl)cc3)C(COC(=O)c3ccc(Cl)cc3)O2)c(=O)[nH]c1=O` (stereo not given), the TGI was > 100 µM.

A further test concerns BT-549 breast. In words: NCI tumour cell line growth inhibition, 48 h.
`S=C(N/N=C/c1ccccn1)N1CCCCC1` gave a TGI of 32.5 µM.

For the molecule `Cc1cn(C2CC(OC(=O)c3ccc(Cl)cc3)C(COC(=O)c3ccc(Cl)cc3)O2)c(=O)[nH]c1=O` (stereo not given), the TGI was > 100 µM.

In another test the test system is CAKI-1 renal. In words: NCI tumour cell line growth inhibition, 48 h.
As for `S=C(N/N=C/c1ccccn1)N1CCCCC1`, the TGI was > 100 µM.

As for `CC(=O)OCC1OC(N2C(c3ccccc3)=CC(c3cccs3)C(C#N)=C2S)C(OC(C)=O)C(OC(C)=O)C1OC(C)=O` (stereo not given), the TGI is > 100 µM.

On to `Nn1c(C23CC4CC(CC(C4)C2)C3)n[nH]c1=S`, for which the TGI was > 100 µM.

As to `Cc1cn(C2CC(OC(=O)c3ccc(Cl)cc3)C(COC(=O)c3ccc(Cl)cc3)O2)c(=O)[nH]c1=O` (stereo not given), the TGI is > 100 µM.

The next test relates to CCRF-CEM leukemia. The experiment in a line: NCI tumour cell line growth inhibition, 48 h.
Consider `CC(=O)OCC1OC(N2C(c3ccccc3)=CC(c3cccs3)C(C#N)=C2S)C(OC(C)=O)C(OC(C)=O)C1OC(C)=O` (stereo not given), for which the TGI was > 100 µM.

As to `Nn1c(C23CC4CC(CC(C4)C2)C3)n[nH]c1=S`, the TGI was > 100 µM.

On to `Cc1cn(C2CC(OC(=O)c3ccc(Cl)cc3)C(COC(=O)c3ccc(Cl)cc3)O2)c(=O)[nH]c1=O` (stereo not given), for which the TGI was > 100 µM.

The subject of a further test is COLO 205 colon. In words: NCI tumour cell line growth inhibition, 48 h.
Take `S=C(N/N=C/c1ccccn1)N1CCCCC1`: the TGI is > 100 µM.

Turning to `CC(=O)OCC1OC(N2C(c3ccccc3)=CC(c3cccs3)C(C#N)=C2S)C(OC(C)=O)C(OC(C)=O)C1OC(C)=O` (stereo not given), the TGI is > 100 µM.

On to `Nn1c(C23CC4CC(CC(C4)C2)C3)n[nH]c1=S`, for which the TGI was > 100 µM.

Turning to `Cc1cn(C2CC(OC(=O)c3ccc(Cl)cc3)C(COC(=O)c3ccc(Cl)cc3)O2)c(=O)[nH]c1=O` (stereo not given), the TGI was > 100 µM.

A further test relates to DU-145 prostate. In words: NCI tumour cell line growth inhibition, 48 h.
In the case of `S=C(N/N=C/c1ccccn1)N1CCCCC1`, the TGI was > 100 µM.

For the molecule `CC(=O)OCC1OC(N2C(c3ccccc3)=CC(c3cccs3)C(C#N)=C2S)C(OC(C)=O)C(OC(C)=O)C1OC(C)=O` (stereo not given), the TGI was > 100 µM.

Regarding `Nn1c(C23CC4CC(CC(C4)C2)C3)n[nH]c1=S`, the TGI is > 100 µM.

On to `Cc1cn(C2CC(OC(=O)c3ccc(Cl)cc3)C(COC(=O)c3ccc(Cl)cc3)O2)c(=O)[nH]c1=O` (stereo not given), for which the TGI is > 100 µM.

In another test the test system is EKVX NSCLC. In words: NCI tumour cell line growth inhibition, 48 h.
`S=C(N/N=C/c1ccccn1)N1CCCCC1` yielded a TGI of 17.4 µM.

For the molecule `Nn1c(C23CC4CC(CC(C4)C2)C3)n[nH]c1=S`, the TGI is > 100 µM.

For the molecule `Cc1cn(C2CC(OC(=O)c3ccc(Cl)cc3)C(COC(=O)c3ccc(Cl)cc3)O2)c(=O)[nH]c1=O` (stereo not given), the TGI is > 100 µM.

For the next test, the system named is HCC-2998 colon. The experiment in a line: NCI tumour cell line growth inhibition, 48 h.
`S=C(N/N=C/c1ccccn1)N1CCCCC1`: the TGI was > 100 µM.

On to `CC(=O)OCC1OC(N2C(c3ccccc3)=CC(c3cccs3)C(C#N)=C2S)C(OC(C)=O)C(OC(C)=O)C1OC(C)=O` (stereo not given), for which the TGI was > 100 µM.

Take `Nn1c(C23CC4CC(CC(C4)C2)C3)n[nH]c1=S`: the TGI was > 100 µM.

The next test has as its system HCT-116 colon. The experiment in a line: NCI tumour cell line growth inhibition, 48 h.
With `S=C(N/N=C/c1ccccn1)N1CCCCC1`, the TGI was determined as 10.9 µM.

Consider `CC(=O)OCC1OC(N2C(c3ccccc3)=CC(c3cccs3)C(C#N)=C2S)C(OC(C)=O)C(OC(C)=O)C1OC(C)=O` (stereo not given), for which the TGI was > 100 µM.

Consider `Nn1c(C23CC4CC(CC(C4)C2)C3)n[nH]c1=S`, for which the TGI was > 100 µM.

Turning to `Cc1cn(C2CC(OC(=O)c3ccc(Cl)cc3)C(COC(=O)c3ccc(Cl)cc3)O2)c(=O)[nH]c1=O` (stereo not given), the TGI was > 100 µM.

The subject of a further test is HCT-15 colon. The experiment in a line: NCI tumour cell line growth inhibition, 48 h.
`S=C(N/N=C/c1ccccn1)N1CCCCC1` had a TGI of 28.3 µM.

Turning to `CC(=O)OCC1OC(N2C(c3ccccc3)=CC(c3cccs3)C(C#N)=C2S)C(OC(C)=O)C(OC(C)=O)C1OC(C)=O` (stereo not given), the TGI was > 100 µM.

As to `Nn1c(C23CC4CC(CC(C4)C2)C3)n[nH]c1=S`, the TGI was > 100 µM.

Turning to `Cc1cn(C2CC(OC(=O)c3ccc(Cl)cc3)C(COC(=O)c3ccc(Cl)cc3)O2)c(=O)[nH]c1=O` (stereo not given), the TGI was > 100 µM.

The subject of the next test is HL-60(TB) leukemia. The experiment in a line: NCI tumour cell line growth inhibition, 48 h.
The molecule `S=C(N/N=C/c1ccccn1)N1CCCCC1` yielded a TGI of 0.264 µM.

For `Nn1c(C23CC4CC(CC(C4)C2)C3)n[nH]c1=S`, the TGI was > 100 µM.

With `Cc1cn(C2CC(OC(=O)c3ccc(Cl)cc3)C(COC(=O)c3ccc(Cl)cc3)O2)c(=O)[nH]c1=O` (stereo not given), the TGI was > 100 µM.

The test system of a further test is HOP-62 NSCLC. In words: NCI tumour cell line growth inhibition, 48 h.
For the molecule `Nn1c(C23CC4CC(CC(C4)C2)C3)n[nH]c1=S`, the TGI was > 100 µM.

For `Cc1cn(C2CC(OC(=O)c3ccc(Cl)cc3)C(COC(=O)c3ccc(Cl)cc3)O2)c(=O)[nH]c1=O` (stereo not given), the TGI is > 100 µM.
